Data on 14 molecules can be found in article PMC12508156, “Non-canonical dihydrolipoyl transacetylase promotes chemotherapy resistance via mitochondrial tetrahydrofolate signaling” (Nature Communications, 2025).

One assay has as its system A549cisR cells. Nature of the assay: Apoptotic cell death (annexin V/PI staining). Particulars: A549cisR; 5 mM DCA and/or sublethal cisplatin, 48 h; n=1-3: biological replicates. The class given is cell-based, human.
In the next assay the test system is KB-3-1cisR cells. Nature of the assay: Apoptotic cell death (annexin V/PI staining). In kind it is cell-based, human. The conditions noted are these: KB-3-1cisR; 5 mM DCA and/or sublethal cisplatin, 48 h; n=1-3: biological replicates.
Assay [1] concerns cisplatin-resistant cancer cells. Nature of the assay: Drug sensitivity of cancer cells (apoptosis, cell viability). Particulars: for sensitization of cancer cells to the agent by impairment of DLAT: KB-3-1cisR and A549cisR, DLAT knockdown vs control, sublethal doses 48 h: 50 μM carboplatin, 10 nM gemcitabine, 10 μM etoposide, 0.5 μM pemetrexed, 3 nM paclitaxel, 1 μM erlotinib; for sensitization of cancer cells to cisplatin treatment: 10 μM inhibitor and sublethal doses of cisplatin, 48 h (Fig. 4e, f). The class given is cell-based, human. The procedure: Cell viability was determined using the CellTiter-Glo Luminescent Cell Viability Assay. […] Subsequently, the cells were cultured in complete medium for an additional 10 days, and the resulting colonies were visualized by staining with crystal violet and quantified using ImageJ software. For cell cycle analysis, cells fixed with 70% ethanol were stained with RNase A (100 µg/mL) and propidium iodide (50 μg/ml) for 30 min at 37 °C, and DNA content distribution was measured using flow cytometry (BD Symphony A3) and analyzed with FlowJo software (v10.9). Apoptotic cell death was assessed via FITC-conjugated annexin V and propidium iodide staining.

The test system of a further assay is MT-CO2. Nature of the assay: MT-CO1, MT-CO2, COXIV expression (immunoblot, quantitative RT-PCR). The class given is cell-based, human. The protocol: Apoptosis (top) and cell viability (bottom) were determined. 10-formyl-THF rescues cisplatin-resistant cell growth (c) and MT-CO2 expression (d) in cells lacking K44 MTHFD2 acetylation. Cisplatin-treated cells expressing K44R MTHFD2 were subjected to 10 μM 10-formyl-THF for 24 h followed by annexin V staining, cell viability assay, and assessment of MT-CO1, MT-CO2, and COXIV levels by immunoblotting and quantitative RT-PCR. Cells expressing the acetyl-mimetic mutant form of MTHFD2 K44Q were included for comparison. Effect of MT-CO2 overexpression on cisplatin-resistant cell growth in cells lacking K44 MTHFD2 acetylation (e) or DLAT (f) by K44R MTHFD2 expression or DLAT knockdown, respectively. Data are mean ± SD from 4 independent biological replicates for (d) and 3 for (a–c, e, f). P values were determined by one-way ANOVA. Source data are provided as a Source Data file.
Supplementary Fig. 8: POLRMT is required for 10-formyl-THF-induced MT-CO2 expression in cisplatin-resistant cells. […]
absence of 10-formyl-THF (10 µM) for 24 h. The levels of MT-CO2, mitochondrial transcription factors, and myc-MTHFD2 were assessed by immunoblotting. […] MT-CO2 mRNA and protein levels were assessed by quantitative RT-PCR and immunoblotting, respectively. […] P values were determined by one-way ANOVA. […]

Another assay relates to MTHFD1. Particulars: concurrently inhibiting the ubiquitous isozyme MTHFD1; cited from earlier work. An excerpt:
Inhibitors targeting components of PDC include a non-selective PDK inhibitor, dichloroacetate (DCA)[39]. However, to the best of our knowledge, no specific inhibitor is available to target non-classical DLAT signaling that is independent of PDC. LY345899 and DS18561882 have been reported to be MTHFD2 inhibitors, and are a folate analog and a tricyclic coumarin-based compound that competitively binds to the substrate binding site[40]–[42]. However, these inhibitors are unselective, concurrently inhibiting the ubiquitous isozyme MTHFD1 and thus posing a potential safety risk; therefore, further ...

In a further assay the test system is DLAT. Nature of the assay: DLAT mRNA, DLAT protein and cell viability after elesclomol. The conditions noted are these: increasing doses up to 1 µM for 48 h. The class given is cell-based, human. The protocol:
Elesclomol was administered at increasing doses up to 1 µM for 48 h. The levels of DLAT mRNA (a), DLAT protein (b), and cell viability (c) are shown. Error bars represent the standard deviation (SD) and from 3 independent biological replicates for (a,c). P values were obtained by one-way ANOVA. 1 (1 picture or pasted object on this page, not shown here)

Another assay has as its system Bcl-xL. The experiment in a line: Immunoblotting of apoptosis-associated proteins. In kind it is cell-based, human. Particulars: NAC in cisplatin-treated DLAT knockdown cells (Fig. 3h). The protocol:
Cellular ROS (upper), apoptosis (middle), and cell viability (lower) were measured. […] Mito-TEMPO (10 μM) or flag-tagged catalase was introduced in cisplatin-treated cells. Mitochondrial ROS and cytoplasmic hydrogen peroxide were measured by mitoSOX staining and luminescence detection, respectively. g Immunoblotting of apoptosis-associated proteins. […] Fold changes were obtained by comparing the DLAT knockdown group to the control group. […] P values were determined by two-tailed Student’s t-test (a, i) and one-way ANOVA for the rest. Source data are provided as a Source Data file.

Assay [2] concerns A549cisR and KB-3-1cisR cells. The experiment in a line: Senescence (p21) and autophagy (LC3-I/II, p62) markers, cell cycle. The class given is cell-based, human. The conditions noted are these: 0.5 mM NAC, 24 h, DLAT shRNA and sublethal cisplatin. The protocol:
1cisR cells were transduced with DLAT-targeting shRNA and treated with sublethal doses of […]
antioxidant N-acetylcysteine (NAC). (a) Western blot analysis of p21 waf1/cip1 expression as a marker of cellular senescence. (b) Western blot analysis of LC3-I/II and p62 as markers of autophagy. (c) Cell cycle distribution was assessed by flow cytometry following propidium iodide staining. (d) Intracellular ROS levels were measured using the H2DCFDA probe. Error bars represent SD and are from 3 independent biological replicates for (c,d). P values were determined by one-way ANOVA.
(1 picture or pasted object on this page, not shown here)

Where “and” joins values, the source holds several entries; their conditions need not be identical. Identical values can stand only once.

Regarding `O=C(O)C(Cl)Cl` [DCA, dichloroacetate], the Apoptotic death was 9.2 and 6.2 with A549cisR cells; 2.5 and 4.8 and 4.4 in the assay on KB-3-1cisR cells. In addition, the “survival of cisplatin-resistant cancer cells” value in assay [1] (5 mM DCA and cisplatin, 48 h, A549cisR and KB-3-1cisR (Fig. 2e)) is recorded as “no significant effect”.

For `N.N.O=C([O-])C1(C(=O)[O-])CCC1.[Pt+2]` [carboplatin], the “sensitization of cancer cells to the agent by impairment of DLAT” value (shortened to “sensitization of cancer cells … of DLAT”) in assay [1] is “sensitized”.

Consider `Cc1ccccc1-c1cc(=O)oc2cc(OC(C)C(=O)N(C)C)ccc12` (stereo not drawn) [IMT1], for which, in the assay with MT-CO2 (IMT1 5 µM and 10-formyl-THF 10 µM, 24 h (Supplementary Fig. 8b)), the “MT-CO2 expression induced by 10-formyl-THF” value is recorded as “mitigated”.

As for `Nc1nc2c(c(=O)[nH]1)N1C(=O)N(c3ccc(C(=O)N[C@@H](CCC(=O)O)C(=O)O)cc3)CC1CN2` (stereo partly drawn) [LY345899], the “sensitization of cancer cells to cisplatin treatment” value in assay [1] is given as “sensitized”. In the assay on MTHFD1, the “selectivity versus isozyme MTHFD1” value is listed as “unselective”.

For `Nc1nc2c(c(=O)[nH]1)NC(CN(C=O)c1ccc(C(=O)N[C@@H](CCC(=O)O)C(=O)O)cc1)CN2` (stereo partly drawn) [10-formyl-THF, 10-Formyltetrahydrofolate], the “MT-CO2 expression in MTHFD2 K44R cells” value in the assay on MT-CO2 (10 μM 10-formyl-THF, 24 h, cisplatin-treated cells (Fig. 6d)) is “restored”. Further, the “attenuated cell viability and elevated apoptosis induced by cisplatin and DLAT loss” value in assay [1] (supplementation at physiological concentrations, 48 h, DLAT knockdown cells under sublethal cisplatin (Fig. 6a, b)) is reported as “reversed”.

Turning to `CC1(C)CC(NC(=O)C[P+](c2ccccc2)(c2ccccc2)c2ccccc2)CC(C)(C)N1[O]` [mito-TEMPO], the “elevated apoptosis and attenuated cell viability induced by DLAT loss and cisplatin” value in assay [1] (Mito-TEMPO 10 μM (Fig. 3e)) is “reversed”.

In the case of `C#Cc1cccc(Nc2ncnc3cc(OCCOC)c(OCCOC)cc23)c1` [erlotinib], the “sensitization of cancer cells … of DLAT” value in assay [1] is “not”.

On to `Cc1c(N2CCN(C)[C@@H](C)C2)ccc2c3c(c(=O)oc12)CN(C(=O)c1ccc(NS(C)(=O)=O)c(OC(F)(F)F)c1)CC3` [DS18561882], for which the “sensitization of cancer cells to cisplatin treatment” value in assay [1] is on record as “sensitized”. In addition, the “selectivity versus isozyme MTHFD1” value in the assay on MTHFD1 is “unselective”.

For `CN(NC(=O)CC(=O)NN(C)C(=S)c1ccccc1)C(=S)c1ccccc1` [elesclomol], the “DLAT levels (gene and protein)” value in the assay on DLAT was “did not alter”.

Take `CC(=O)O[C@H]1C(=O)[C@@]2(C)[C@H]([C@H](OC(=O)c3ccccc3)[C@]3(O)C[C@H](OC(=O)[C@H](O)[C@@H](NC(=O)c4ccccc4)c4ccccc4)C(C)=C1C3(C)C)[C@]1(OC(C)=O)CO[C@@H]1C[C@@H]2O` [paclitaxel]: the “sensitization of cancer cells … of DLAT” value in assay [1] is “sensitized”.

As to `COc1cc([C@@H]2c3cc4c(cc3[C@@H](O[C@@H]3O[C@@H]5CO[C@@H](C)O[C@H]5[C@H](O)[C@H]3O)[C@H]3COC(=O)[C@H]23)OCO4)cc(OC)c1O` [etoposide], in assay [1], the “sensitization of cancer cells … of DLAT” value is given as “sensitized”.

On to `CC(=O)N[C@@H](CS)C(=O)O` [NAC, N-acetyl-L-cysteine], for which the Bcl-xL expression result in the assay on Bcl-xL was “partially restored”. Further, the “senescence, autophagy, or cell cycle progression” value in assay [2] is “did not alter”. The “cisplatin-mediated ROS and apoptosis in DLAT knockdown cells” value in assay [1] (NAC 0.5 mM, cisplatin-treated DLAT knockdown cells (Fig. 3d)) is “significantly lowered”.

For the molecule `Nc1nc2[nH]cc(CCc3ccc(C(=O)N[C@@H](CCC(=O)O)C(=O)O)cc3)c2c(=O)[nH]1` [pemetrexed], the “sensitization of cancer cells … of DLAT” value in assay [1] is on record as “sensitized”.

Turning to `Nc1ccn([C@@H]2O[C@H](CO)[C@@H](O)C2(F)F)c(=O)n1` [gemcitabine], the “sensitization of cancer cells … of DLAT” value in assay [1] was “sensitized”.
